The values that follow are results of earlier work, collected in patent US11686722B2, “Compositions and methods to detect molecules in a sample” (Infusense Corp., priority 2016, dated 2023).

The conditions of series [1]: neutral pH, shake-flask methodology.
The conditions of series [2]: neutral pH, reverse-phase HPLC estimation.

Like-named read-outs stand apart in the source and are kept apart here.

Turning to `CCCCCc1cc(O)c2c(c1)OC(C)(C)C1CCC(C(=O)O)=CC21` (stereo not drawn) [11-nor-9-carboxy-THC, 11-nor-9-carboxy-tetrahydrocannabinol], where the note is “following a dose of THC, urine”, the “time until metabolite appears in the urine, typical” value was no more than 1 h. In addition, the “time until metabolite appears in the urine, longest” value (following a dose of THC, urine, can take as long as) was no more than 4 h.
Turning to `CCCCCc1cc(O)c2c(c1)OC(C)(C)[C@@H]1CCC(C)=C[C@@H]21` [THC, Δ^9-tetrahydrocannabinol], the “n-octanol/water partition coefficient (KOW)” value was 6000 in series [1] and 9,440,000 in series [2]. Also, the clearance half-life entry (in vivo) is recorded as “less than 30 minutes”. Where the note is “urine”, the detectability in urine result was “not detectable in urine”.
